Laboratory results reported in publication PMC12586182 (Frontiers in Oncology, 2025).

Tests used:
Test in all cases: Kinase panel profiling at 1 µmol/L (mobility shift assay, Carna)
Format in all cases: biochemical
Conditions in all cases: 1 µmol/L of BTK inhibitor
WNK3 = molecular target: T1, WNK3 (Homo sapiens, UniProt Q9BYP7)
T1 construct: purchased Carna Biosciences

MST3 = molecular target: T2, MST3 (Homo sapiens, UniProt Q9Y6E0)
T2 construct: purchased Carna Biosciences

MSK1 = molecular target: T3, MSK1 (Homo sapiens, UniProt O75582)
T3 construct: purchased Carna Biosciences
T3 sequence (O75582 whole entry): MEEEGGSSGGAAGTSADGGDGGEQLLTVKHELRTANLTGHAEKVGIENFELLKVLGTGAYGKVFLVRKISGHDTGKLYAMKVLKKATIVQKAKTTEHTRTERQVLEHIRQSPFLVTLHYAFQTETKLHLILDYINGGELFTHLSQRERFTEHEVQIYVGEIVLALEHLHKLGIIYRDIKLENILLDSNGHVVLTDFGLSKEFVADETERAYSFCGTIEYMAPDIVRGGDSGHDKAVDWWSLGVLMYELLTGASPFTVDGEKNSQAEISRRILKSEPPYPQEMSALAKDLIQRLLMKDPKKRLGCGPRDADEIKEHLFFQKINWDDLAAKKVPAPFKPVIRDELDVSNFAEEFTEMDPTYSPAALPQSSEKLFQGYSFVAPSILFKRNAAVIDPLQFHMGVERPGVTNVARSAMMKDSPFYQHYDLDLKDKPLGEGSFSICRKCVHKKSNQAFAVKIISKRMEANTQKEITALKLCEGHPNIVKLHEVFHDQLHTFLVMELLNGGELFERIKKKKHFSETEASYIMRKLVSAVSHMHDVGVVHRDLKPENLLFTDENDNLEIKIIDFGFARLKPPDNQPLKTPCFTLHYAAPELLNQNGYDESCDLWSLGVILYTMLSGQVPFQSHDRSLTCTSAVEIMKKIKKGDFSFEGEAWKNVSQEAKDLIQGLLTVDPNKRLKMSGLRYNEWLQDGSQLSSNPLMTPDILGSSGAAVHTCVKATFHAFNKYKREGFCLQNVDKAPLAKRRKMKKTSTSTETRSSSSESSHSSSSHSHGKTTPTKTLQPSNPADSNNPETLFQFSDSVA

NEK9 = molecular target: T4, NEK9 (Homo sapiens, UniProt Q8TD19)
T4 construct: purchased Carna Biosciences
T4 sequence (Q8TD19 1-979): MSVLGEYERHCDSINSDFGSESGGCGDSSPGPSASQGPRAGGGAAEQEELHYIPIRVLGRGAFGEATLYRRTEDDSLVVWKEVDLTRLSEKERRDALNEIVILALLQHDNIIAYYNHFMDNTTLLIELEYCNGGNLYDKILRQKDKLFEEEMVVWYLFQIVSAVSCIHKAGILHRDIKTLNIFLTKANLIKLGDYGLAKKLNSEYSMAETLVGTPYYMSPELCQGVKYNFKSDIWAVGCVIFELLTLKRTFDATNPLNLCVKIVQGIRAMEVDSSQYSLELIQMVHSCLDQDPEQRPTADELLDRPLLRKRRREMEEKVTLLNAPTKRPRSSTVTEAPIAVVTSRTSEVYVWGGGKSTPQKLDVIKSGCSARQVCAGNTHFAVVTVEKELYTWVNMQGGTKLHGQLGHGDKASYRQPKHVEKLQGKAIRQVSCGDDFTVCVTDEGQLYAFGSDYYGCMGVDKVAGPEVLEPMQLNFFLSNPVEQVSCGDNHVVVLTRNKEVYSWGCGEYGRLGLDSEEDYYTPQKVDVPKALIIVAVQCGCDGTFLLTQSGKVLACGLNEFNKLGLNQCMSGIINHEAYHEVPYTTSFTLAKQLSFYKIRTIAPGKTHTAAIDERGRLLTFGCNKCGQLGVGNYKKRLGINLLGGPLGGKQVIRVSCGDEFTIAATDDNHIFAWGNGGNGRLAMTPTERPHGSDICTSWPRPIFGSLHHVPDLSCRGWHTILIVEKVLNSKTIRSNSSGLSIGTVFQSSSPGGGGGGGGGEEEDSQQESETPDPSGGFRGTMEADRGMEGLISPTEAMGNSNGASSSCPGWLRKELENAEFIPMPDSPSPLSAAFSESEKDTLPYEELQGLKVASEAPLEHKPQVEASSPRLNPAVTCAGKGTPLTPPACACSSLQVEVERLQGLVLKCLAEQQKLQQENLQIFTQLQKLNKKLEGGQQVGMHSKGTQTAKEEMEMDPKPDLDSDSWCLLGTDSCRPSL

MSK2 = molecular target: T5, MSK2 (Homo sapiens, UniProt O75676)
T5 construct: purchased Carna Biosciences

IKKα = molecular target: T6, IKKα (Homo sapiens, UniProt O15111)
T6 construct: purchased Carna Biosciences
T6 sequence (O15111 1-745): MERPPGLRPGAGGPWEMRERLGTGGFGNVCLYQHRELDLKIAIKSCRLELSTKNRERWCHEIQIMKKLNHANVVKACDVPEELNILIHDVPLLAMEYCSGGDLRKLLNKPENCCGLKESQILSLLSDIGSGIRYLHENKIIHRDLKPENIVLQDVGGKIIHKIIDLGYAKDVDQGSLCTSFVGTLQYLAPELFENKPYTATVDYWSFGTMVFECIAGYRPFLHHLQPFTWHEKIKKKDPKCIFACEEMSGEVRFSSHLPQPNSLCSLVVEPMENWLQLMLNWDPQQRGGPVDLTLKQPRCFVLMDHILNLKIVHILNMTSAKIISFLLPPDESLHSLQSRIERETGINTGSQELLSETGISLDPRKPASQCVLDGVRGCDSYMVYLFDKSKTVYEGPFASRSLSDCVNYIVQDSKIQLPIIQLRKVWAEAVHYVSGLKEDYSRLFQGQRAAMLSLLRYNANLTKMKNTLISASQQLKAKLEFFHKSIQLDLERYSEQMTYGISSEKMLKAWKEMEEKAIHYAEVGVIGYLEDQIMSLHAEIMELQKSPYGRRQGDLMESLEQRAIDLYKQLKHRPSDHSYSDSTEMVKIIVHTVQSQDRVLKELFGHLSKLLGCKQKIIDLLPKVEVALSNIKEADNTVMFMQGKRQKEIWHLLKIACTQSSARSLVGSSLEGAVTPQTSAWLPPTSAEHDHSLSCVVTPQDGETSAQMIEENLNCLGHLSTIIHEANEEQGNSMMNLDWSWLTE

HIPK1 = molecular target: T7, HIPK1 (Homo sapiens, UniProt Q86Z02)
T7 construct: purchased Carna Biosciences
T7 sequence (Q86Z02 whole entry): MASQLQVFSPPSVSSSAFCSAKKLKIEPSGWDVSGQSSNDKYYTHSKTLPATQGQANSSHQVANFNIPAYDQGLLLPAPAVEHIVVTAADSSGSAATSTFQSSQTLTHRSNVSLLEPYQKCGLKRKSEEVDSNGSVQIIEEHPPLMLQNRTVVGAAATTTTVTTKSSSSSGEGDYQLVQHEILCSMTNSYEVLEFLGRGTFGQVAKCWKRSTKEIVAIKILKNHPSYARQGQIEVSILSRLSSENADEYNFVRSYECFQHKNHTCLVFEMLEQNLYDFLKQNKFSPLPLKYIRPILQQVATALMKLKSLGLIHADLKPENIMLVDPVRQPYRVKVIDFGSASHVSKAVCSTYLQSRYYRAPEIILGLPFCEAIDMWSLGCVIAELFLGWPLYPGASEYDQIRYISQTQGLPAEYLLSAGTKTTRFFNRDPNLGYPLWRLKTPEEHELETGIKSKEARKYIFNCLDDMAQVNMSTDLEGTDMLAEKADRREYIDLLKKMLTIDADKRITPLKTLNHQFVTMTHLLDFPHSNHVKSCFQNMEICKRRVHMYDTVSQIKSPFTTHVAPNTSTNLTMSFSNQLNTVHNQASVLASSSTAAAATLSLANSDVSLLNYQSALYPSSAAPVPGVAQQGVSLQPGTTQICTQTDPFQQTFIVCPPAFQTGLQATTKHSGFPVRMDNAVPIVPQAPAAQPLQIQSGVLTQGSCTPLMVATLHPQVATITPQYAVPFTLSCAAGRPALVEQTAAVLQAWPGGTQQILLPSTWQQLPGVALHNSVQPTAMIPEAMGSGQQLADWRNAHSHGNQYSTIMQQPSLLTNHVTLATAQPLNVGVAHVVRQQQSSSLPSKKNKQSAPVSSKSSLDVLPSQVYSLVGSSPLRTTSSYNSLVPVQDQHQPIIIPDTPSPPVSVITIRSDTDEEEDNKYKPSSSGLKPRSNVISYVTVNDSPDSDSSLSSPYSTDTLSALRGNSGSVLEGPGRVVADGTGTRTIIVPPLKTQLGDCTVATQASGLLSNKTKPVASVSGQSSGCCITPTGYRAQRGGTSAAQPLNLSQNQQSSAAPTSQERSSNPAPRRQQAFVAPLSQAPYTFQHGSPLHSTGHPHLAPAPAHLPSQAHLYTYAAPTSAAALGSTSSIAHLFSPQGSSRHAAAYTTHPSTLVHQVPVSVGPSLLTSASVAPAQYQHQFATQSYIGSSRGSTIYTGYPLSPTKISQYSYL

SYK = molecular target: T8, SYK (Homo sapiens, UniProt P43405)
T8 construct: purchased Carna Biosciences

FYN [isoform b] = molecular target: T9, FYN [isoform b] (Homo sapiens, UniProt P06241)
T9 construct: purchased Carna Biosciences

PKCθ = molecular target: T10, PKCθ (Homo sapiens, UniProt Q04759)
T10 construct: purchased Carna Biosciences
T10 sequence (Q04759 whole entry): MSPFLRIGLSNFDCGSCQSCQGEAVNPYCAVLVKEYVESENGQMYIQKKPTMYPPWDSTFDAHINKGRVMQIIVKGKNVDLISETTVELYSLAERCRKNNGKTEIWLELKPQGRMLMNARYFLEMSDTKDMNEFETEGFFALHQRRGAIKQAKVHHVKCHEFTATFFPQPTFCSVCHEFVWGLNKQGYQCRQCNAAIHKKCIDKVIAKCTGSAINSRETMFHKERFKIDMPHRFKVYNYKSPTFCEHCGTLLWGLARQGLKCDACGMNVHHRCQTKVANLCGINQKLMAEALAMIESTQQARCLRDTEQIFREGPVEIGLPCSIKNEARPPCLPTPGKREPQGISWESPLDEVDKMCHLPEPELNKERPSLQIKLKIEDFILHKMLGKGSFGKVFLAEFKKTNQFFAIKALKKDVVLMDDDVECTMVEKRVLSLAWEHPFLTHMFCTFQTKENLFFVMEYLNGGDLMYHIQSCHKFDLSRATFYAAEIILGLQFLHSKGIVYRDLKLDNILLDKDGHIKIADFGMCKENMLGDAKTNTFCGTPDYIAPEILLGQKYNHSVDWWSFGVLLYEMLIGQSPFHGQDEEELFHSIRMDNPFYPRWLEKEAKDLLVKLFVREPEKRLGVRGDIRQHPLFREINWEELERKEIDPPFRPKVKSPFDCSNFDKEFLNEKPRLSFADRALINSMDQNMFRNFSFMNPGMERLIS

IRAK4 = molecular target: T11, IRAK4 (Homo sapiens, UniProt Q9NWZ3)
T11 construct: purchased Carna Biosciences
T11 sequence (Q9NWZ3 1-460): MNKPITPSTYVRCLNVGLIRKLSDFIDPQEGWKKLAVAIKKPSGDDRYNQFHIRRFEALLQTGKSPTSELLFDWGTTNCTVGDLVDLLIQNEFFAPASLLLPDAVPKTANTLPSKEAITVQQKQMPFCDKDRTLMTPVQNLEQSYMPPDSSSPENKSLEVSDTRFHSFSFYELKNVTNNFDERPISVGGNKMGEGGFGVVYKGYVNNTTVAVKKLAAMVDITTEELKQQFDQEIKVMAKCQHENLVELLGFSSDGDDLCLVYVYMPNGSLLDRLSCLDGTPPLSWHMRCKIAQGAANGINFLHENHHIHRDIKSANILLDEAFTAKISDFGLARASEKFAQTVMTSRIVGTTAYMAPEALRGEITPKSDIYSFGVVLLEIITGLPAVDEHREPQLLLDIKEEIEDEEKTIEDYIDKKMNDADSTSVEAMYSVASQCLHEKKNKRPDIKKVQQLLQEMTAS

T2 sequence (Q9Y6E0 whole entry): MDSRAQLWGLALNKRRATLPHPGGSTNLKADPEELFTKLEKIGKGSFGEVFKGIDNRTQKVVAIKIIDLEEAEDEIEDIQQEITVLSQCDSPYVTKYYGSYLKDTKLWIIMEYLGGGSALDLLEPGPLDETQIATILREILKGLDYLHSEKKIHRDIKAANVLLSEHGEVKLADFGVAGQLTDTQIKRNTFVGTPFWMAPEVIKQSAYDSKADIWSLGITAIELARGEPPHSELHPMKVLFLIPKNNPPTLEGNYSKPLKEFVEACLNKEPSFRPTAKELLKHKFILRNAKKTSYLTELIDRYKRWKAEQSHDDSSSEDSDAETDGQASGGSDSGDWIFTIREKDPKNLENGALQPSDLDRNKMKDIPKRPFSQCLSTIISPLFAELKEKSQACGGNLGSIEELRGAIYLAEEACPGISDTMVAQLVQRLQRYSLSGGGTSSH
T1 sequence (Q9BYP7 whole entry): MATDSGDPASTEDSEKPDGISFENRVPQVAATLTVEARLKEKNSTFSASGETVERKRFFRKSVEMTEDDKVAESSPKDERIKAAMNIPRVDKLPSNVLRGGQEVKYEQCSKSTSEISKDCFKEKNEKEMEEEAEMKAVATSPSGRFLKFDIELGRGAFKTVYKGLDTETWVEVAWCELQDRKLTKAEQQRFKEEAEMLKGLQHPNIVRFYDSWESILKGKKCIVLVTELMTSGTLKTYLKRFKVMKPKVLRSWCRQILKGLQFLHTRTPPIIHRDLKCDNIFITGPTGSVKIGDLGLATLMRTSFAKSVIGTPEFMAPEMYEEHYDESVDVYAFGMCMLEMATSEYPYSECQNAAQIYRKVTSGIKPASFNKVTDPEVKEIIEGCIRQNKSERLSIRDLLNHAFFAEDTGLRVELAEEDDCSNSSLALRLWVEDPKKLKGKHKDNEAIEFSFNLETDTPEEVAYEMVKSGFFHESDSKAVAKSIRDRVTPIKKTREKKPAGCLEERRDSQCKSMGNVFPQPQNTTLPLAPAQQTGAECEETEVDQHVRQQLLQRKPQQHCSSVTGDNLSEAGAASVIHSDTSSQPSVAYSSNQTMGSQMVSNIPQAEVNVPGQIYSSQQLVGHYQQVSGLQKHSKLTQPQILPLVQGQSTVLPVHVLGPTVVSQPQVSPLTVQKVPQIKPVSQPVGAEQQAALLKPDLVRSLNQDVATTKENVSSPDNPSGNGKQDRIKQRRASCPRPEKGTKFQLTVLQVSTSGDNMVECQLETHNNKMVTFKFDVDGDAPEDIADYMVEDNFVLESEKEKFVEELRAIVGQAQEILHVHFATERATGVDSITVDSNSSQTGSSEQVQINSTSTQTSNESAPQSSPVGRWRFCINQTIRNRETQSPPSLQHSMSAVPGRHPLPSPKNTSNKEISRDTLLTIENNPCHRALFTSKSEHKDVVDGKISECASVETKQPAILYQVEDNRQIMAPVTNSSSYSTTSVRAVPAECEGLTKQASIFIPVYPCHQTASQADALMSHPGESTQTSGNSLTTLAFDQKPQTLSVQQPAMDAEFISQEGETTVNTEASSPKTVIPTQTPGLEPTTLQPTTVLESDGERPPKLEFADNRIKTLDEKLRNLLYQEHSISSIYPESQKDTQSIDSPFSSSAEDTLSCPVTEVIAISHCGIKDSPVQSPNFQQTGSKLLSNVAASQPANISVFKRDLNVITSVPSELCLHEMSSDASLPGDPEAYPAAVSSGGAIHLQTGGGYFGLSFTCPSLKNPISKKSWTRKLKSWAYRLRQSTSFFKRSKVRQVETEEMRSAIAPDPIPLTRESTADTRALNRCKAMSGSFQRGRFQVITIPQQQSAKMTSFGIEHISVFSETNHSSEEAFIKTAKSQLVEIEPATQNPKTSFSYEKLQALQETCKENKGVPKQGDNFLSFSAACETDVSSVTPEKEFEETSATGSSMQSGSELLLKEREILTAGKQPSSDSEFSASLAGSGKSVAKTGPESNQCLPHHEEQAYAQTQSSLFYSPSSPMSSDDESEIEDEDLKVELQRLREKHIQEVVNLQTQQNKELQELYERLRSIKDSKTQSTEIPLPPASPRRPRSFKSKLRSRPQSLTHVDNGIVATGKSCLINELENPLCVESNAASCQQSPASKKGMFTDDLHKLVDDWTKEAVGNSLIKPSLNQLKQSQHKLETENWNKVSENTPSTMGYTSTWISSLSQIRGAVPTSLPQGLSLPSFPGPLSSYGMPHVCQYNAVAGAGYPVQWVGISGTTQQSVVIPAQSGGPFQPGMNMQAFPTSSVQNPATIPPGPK

Row | Structure (SMILES) | Percentage inhibition of kinase enzyme activity (WNK3) [%] | Percentage inhibition of kinase enzyme activity (MST3) [%] | Percentage inhibition of kinase enzyme activity (MSK1) [%] | Percentage inhibition of kinase enzyme activity (NEK9) [%] | Percentage inhibition of kinase enzyme activity (MSK2) [%] | Percentage inhibition of kinase enzyme activity (IKKα) [%] | Percentage inhibition of kinase enzyme activity (HIPK1) [%] | Percentage inhibition of kinase enzyme activity (SYK) [%] | Percentage inhibition of kinase enzyme activity (FYN [isoform b]) [%] | Percentage inhibition of kinase enzyme activity (PKCθ) [%] | Percentage inhibition of kinase enzyme activity (IRAK4) [%]
1 | CC#CC(=O)N1CCC[C@H]1c1nc(-c2ccc(C(=O)Nc3ccccn3)cc2)c2c(N)nccn12 [acalabrutinib] | -0.26 | -2.52 | -7.68 | -3.18 | 1.53 | -1.45 | -14.56 | -19.36 | -1.25 | -8.13 | -6.55
2 | C=CC(=O)N1CCC[C@@H](n2nc(-c3ccc(Oc4ccccc4)cc3)c3c(N)ncnc32)C1 [ibrutinib] | 6.84 | 7.79 | -1.18 | -3.28 | -2.09 | 4.34 | 4.26 | -19.83 | 86.77 | -1.13 | -5.09
3 | O=C(c1ccc(Oc2ccccc2)cc1Cl)c1c[nH]c2ncnc(N[C@@H]3CC[C@@H](CO)OC3)c12 [nemtabrutinib] | 52.96 | 60.10 | 11.30 | -0.83 | 5.69 | 1.80 | 2.16 | 3.99 |  | -0.21 | 2.38
4 | COc1ccc(F)cc1C(=O)NCc1ccc(-c2nn([C@@H](C)C(F)(F)F)c(N)c2C(N)=O)cc1 [pirtobrutinib] | 2.54 | 0.67 | 4.32 | -2.20 | 1.57 | -16.22 | 2.97 | -13.08 | 15.19 | 4.94 | -1.11
5 | C=CC(=O)N1CCC([C@@H]2CCNc3c(C(N)=O)c(-c4ccc(Oc5ccccc5)cc4)nn32)CC1 [zanubrutinib] |  |  | 0.57 |  |  | -9.91 |  |  |  |  | 
